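Dose response: 5 concentrations. Exposure: 48 h. Format: 96-well plates. Endpoint: linear interpolation; highest concentration if not reached. GI50 marks 50% less growth. Definition used: TGI = concentration required for complete inhibition of growth.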
Experiments:
Test in all cases: DTP human tumour cell line panel, 48 h
786-0 renal = tested on: 786-0 renal
A498 renal = tested on: A498 renal
A549 NSCLC = tested on: A549 NSCLC
ACHN renal = tested on: ACHN renal
BT-549 breast = tested on: BT-549 breast
CAKI-1 renal = tested on: CAKI-1 renal
CCRF-CEM leukemia = tested on: CCRF-CEM leukemia
COLO 205 colon = tested on: COLO 205 colon
DU-145 prostate = tested on: DU-145 prostate
EKVX NSCLC = tested on: EKVX NSCLC
HCC-2998 colon = tested on: HCC-2998 colon
HCT-116 colon = tested on: HCT-116 colon
HCT-15 colon = tested on: HCT-15 colon
HL-60(TB) leukemia = tested on: HL-60(TB) leukemia
HOP-62 NSCLC = tested on: HOP-62 NSCLC
HOP-92 NSCLC = tested on: HOP-92 NSCLC
HS 578T breast = tested on: HS 578T breast
HT29 colon = tested on: HT29 colon
IGROV1 ovarian = tested on: IGROV1 ovarian
K-562 leukemia = tested on: K-562 leukemia
KM12 colon = tested on: KM12 colon
LOX IMVI melanoma = tested on: LOX IMVI melanoma
M14 melanoma = tested on: M14 melanoma
MALME-3M melanoma = tested on: MALME-3M melanoma
MCF7 breast = tested on: MCF7 breast
MDA-MB-231 breast = tested on: MDA-MB-231 breast
MDA-MB-435 = tested on: MDA-MB-435
MOLT-4 leukemia = tested on: MOLT-4 leukemia
NCI-H226 lung = tested on: NCI-H226 lung
NCI-H23 lung = tested on: NCI-H23 lung
NCI-H460 lung = tested on: NCI-H460 lung
NCI-H522 lung = tested on: NCI-H522 lung
NCI/ADR-RES ovarian = tested on: NCI/ADR-RES ovarian
OVCAR-3 ovarian = tested on: OVCAR-3 ovarian
OVCAR-4 ovarian = tested on: OVCAR-4 ovarian
OVCAR-5 ovarian = tested on: OVCAR-5 ovarian
OVCAR-8 ovarian = tested on: OVCAR-8 ovarian
PC-3 prostate = tested on: PC-3 prostate
RPMI-8226 leukemia = tested on: RPMI-8226 leukemia
RXF 393 renal = tested on: RXF 393 renal
SF-268 CNS = tested on: SF-268 CNS
SF-295 CNS = tested on: SF-295 CNS
SF-539 CNS = tested on: SF-539 CNS
SK-MEL-2 melanoma = tested on: SK-MEL-2 melanoma
SK-MEL-28 melanoma = tested on: SK-MEL-28 melanoma
SK-MEL-5 melanoma = tested on: SK-MEL-5 melanoma
SK-OV-3 ovarian = tested on: SK-OV-3 ovarian
SN12C renal = tested on: SN12C renal
SNB-19 CNS = tested on: SNB-19 CNS
SNB-75 CNS = tested on: SNB-75 CNS
SR leukemia = tested on: SR leukemia
SW-620 colon = tested on: SW-620 colon
T-47D breast = tested on: T-47D breast
TK-10 renal = tested on: TK-10 renal
U251 CNS = tested on: U251 CNS
UACC-257 melanoma = tested on: UACC-257 melanoma
UACC-62 melanoma = tested on: UACC-62 melanoma
UO-31 renal = tested on: UO-31 renal

## O=C(Nc1ccc(-n2ccc3c(NC(=O)c4ccccc4)nccc32)cc1)Nc1ccc(Cl)c(Cl)c1
786-0 renal
  GI50: 1.01 µM
  TGI: 2.36 µM
A498 renal
  GI50: 2.58 µM
  TGI: 7.58 µM
A549 NSCLC
  GI50: 1010 nM
  TGI: 2.57 µM
ACHN renal
  GI50: 1220 nM
  TGI: 4.29 µM
BT-549 breast
  GI50: 3.08 µM
  TGI: 17.9 µM
CAKI-1 renal
  GI50: 1.65 µM
  TGI: 6.88 µM
CCRF-CEM leukemia
  GI50: 252 nM
  TGI: 1.93 µM
COLO 205 colon
  GI50: 1.42 µM
  TGI: 3.27 µM
DU-145 prostate
  GI50: 1570 nM
  TGI: 3.92 µM
EKVX NSCLC
  GI50: 4.83 µM
  TGI: 44 µM
HCC-2998 colon
  GI50: 1.47 µM
  TGI: 3.65 µM
HCT-116 colon
  GI50: 488 nM
  TGI: 1.74 µM
HCT-15 colon
  GI50: 201 nM
  TGI: 2.84 µM
HL-60(TB) leukemia
  GI50: 1250 nM
  TGI: 4.22 µM
HOP-62 NSCLC
  GI50: 1310 nM
  TGI: 2.75 µM
HOP-92 NSCLC
  GI50: 1230 nM
  TGI: 4.61 µM
HS 578T breast
  GI50: 791 nM
  TGI: 3.47 µM
HT29 colon
  GI50: 0.664 µM
  TGI: 2.33 µM
IGROV1 ovarian
  GI50: 1760 nM
  TGI: 11 µM
K-562 leukemia
  GI50: 736 nM
  TGI: > 100 µM
KM12 colon
  GI50: 0.985 µM
  TGI: 2.5 µM
LOX IMVI melanoma
  GI50: 503 nM
  TGI: 2280 nM
M14 melanoma
  GI50: 1470 nM
  TGI: 2.93 µM
MALME-3M melanoma
  GI50: 1700 nM
  TGI: 3.78 µM
MCF7 breast
  GI50: 1100 nM
  TGI: 2370 nM
MDA-MB-231 breast
  GI50: 1230 nM
  TGI: 2.82 µM
MDA-MB-435
  GI50: 1310 nM
  TGI: 2.81 µM
MOLT-4 leukemia
  GI50: 908 nM
  TGI: 8.56 µM
NCI-H226 lung
  GI50: 15.9 µM
  TGI: 97.7 µM
NCI-H23 lung
  GI50: 5.2 µM
  TGI: 28.6 µM
NCI-H460 lung
  GI50: 0.358 µM
  TGI: 1.78 µM
NCI-H522 lung
  GI50: 1450 nM
  TGI: 3.7 µM
NCI/ADR-RES ovarian
  GI50: 1310 nM
  TGI: 4.52 µM
OVCAR-3 ovarian
  GI50: 1340 nM
  TGI: 2.75 µM
OVCAR-4 ovarian
  GI50: 1550 nM
  TGI: 3.86 µM
OVCAR-5 ovarian
  GI50: 3.52 µM
  TGI: 32.9 µM
OVCAR-8 ovarian
  GI50: 1260 nM
  TGI: 3.7 µM
PC-3 prostate
  GI50: 1060 nM
  TGI: > 26.6 µM
RPMI-8226 leukemia
  GI50: 482 nM
  TGI: 3.08 µM
RXF 393 renal
  GI50: 624 nM
  TGI: 1.96 µM
SF-268 CNS
  GI50: 1260 nM
  TGI: 5.97 µM
SF-295 CNS
  GI50: 0.877 µM
  TGI: 3.18 µM
SF-539 CNS
  GI50: 557 nM
  TGI: 2.41 µM
SK-MEL-2 melanoma
  GI50: 1980 nM
  TGI: 4.87 µM
SK-MEL-28 melanoma
  GI50: 1490 nM
  TGI: 3.07 µM
SK-MEL-5 melanoma
  GI50: 748 nM
  TGI: 2200 nM
SK-OV-3 ovarian
  GI50: 1.2 µM
  TGI: 3.29 µM
SN12C renal
  GI50: 2010 nM
  TGI: 9.08 µM
SNB-19 CNS
  GI50: 1130 nM
  TGI: 4.4 µM
SNB-75 CNS
  GI50: 489 nM
  TGI: 2.34 µM
SR leukemia
  GI50: 132 nM
  TGI: 932 nM
SW-620 colon
  GI50: 1080 nM
  TGI: 2.51 µM
T-47D breast
  GI50: 2030 nM
  TGI: 5.33 µM
TK-10 renal
  GI50: 1.82 µM
  TGI: 5.29 µM
U251 CNS
  GI50: 373 nM
  TGI: 1.92 µM
UACC-257 melanoma
  GI50: 1960 nM
  TGI: 4.52 µM
UACC-62 melanoma
  GI50: 1230 nM
  TGI: 2.83 µM
UO-31 renal
  GI50: 1600 nM
  TGI: 4.1 µM

## CCOC(=O)/C=C(/C)Sc1cc(O)c2ccccc2c1O
786-0 renal
  GI50: 15.2 µM
  TGI: 28.6 µM
A498 renal
  GI50: 22.8 µM
  TGI: 56.3 µM
A549 NSCLC
  GI50: 2500 nM
  TGI: 5.99 µM
ACHN renal
  GI50: 2780 nM
  TGI: 9.82 µM
BT-549 breast
  GI50: 2.93 µM
  TGI: 10.5 µM
CAKI-1 renal
  GI50: 7.33 µM
  TGI: 20 µM
CCRF-CEM leukemia
  GI50: 2730 nM
  TGI: 6.83 µM
COLO 205 colon
  GI50: 7.22 µM
  TGI: 20.7 µM
DU-145 prostate
  GI50: 1860 nM
  TGI: 3.44 µM
EKVX NSCLC
  GI50: 3.89 µM
  TGI: 21.2 µM
HCC-2998 colon
  GI50: 16.2 µM
  TGI: 31.1 µM
HCT-116 colon
  GI50: 2050 nM
  TGI: 4.95 µM
HCT-15 colon
  GI50: 2540 nM
  TGI: 8.83 µM
HL-60(TB) leukemia
  GI50: 2290 nM
  TGI: 5.72 µM
HOP-62 NSCLC
  GI50: 3020 nM
  TGI: 12.9 µM
HOP-92 NSCLC
  GI50: 3210 nM
  TGI: 11.9 µM
HS 578T breast
  GI50: 2260 nM
  TGI: 6.58 µM
HT29 colon
  GI50: 19.2 µM
  TGI: 48.4 µM
IGROV1 ovarian
  GI50: 2260 nM
  TGI: 17.8 µM
K-562 leukemia
  GI50: 2480 nM
  TGI: 6.68 µM
KM12 colon
  GI50: 12.9 µM
  TGI: 26.8 µM
LOX IMVI melanoma
  GI50: 2140 nM
  TGI: > 23100 nM
M14 melanoma
  GI50: 1760 nM
  TGI: 3.48 µM
MALME-3M melanoma
  GI50: 1930 nM
  TGI: 3.71 µM
MCF7 breast
  GI50: 1540 nM
  TGI: 3590 nM
MDA-MB-231 breast
  GI50: 2670 nM
  TGI: 15.3 µM
MDA-MB-435
  GI50: 1750 nM
  TGI: 3.28 µM
MOLT-4 leukemia
  GI50: 2330 nM
  TGI: 7.08 µM
NCI-H226 lung
  GI50: 14.5 µM
  TGI: 32.8 µM
NCI-H23 lung
  GI50: 2.07 µM
  TGI: 5.67 µM
NCI-H460 lung
  GI50: 13.9 µM
  TGI: 30.4 µM
NCI-H522 lung
  GI50: 1730 nM
  TGI: 4.66 µM
NCI/ADR-RES ovarian
  GI50: 3990 nM
  TGI: 25.2 µM
OVCAR-3 ovarian
  GI50: 2000 nM
  TGI: 5.1 µM
OVCAR-4 ovarian
  GI50: 3360 nM
  TGI: 13.2 µM
OVCAR-5 ovarian
  GI50: 17.5 µM
  TGI: 34 µM
OVCAR-8 ovarian
  GI50: 2990 nM
  TGI: 12.9 µM
PC-3 prostate
  GI50: 4590 nM
  TGI: 22.8 µM
RPMI-8226 leukemia
  GI50: 2290 nM
  TGI: 9.09 µM
RXF 393 renal
  GI50: 2280 nM
  TGI: 6.34 µM
SF-268 CNS
  GI50: 4240 nM
  TGI: 14.6 µM
SF-295 CNS
  GI50: 12.4 µM
  TGI: 26.4 µM
SF-539 CNS
  GI50: 4840 nM
  TGI: 11.7 µM
SK-MEL-28 melanoma
  GI50: 2340 nM
  TGI: 5.45 µM
SK-MEL-5 melanoma
  GI50: 1590 nM
  TGI: 2990 nM
SK-OV-3 ovarian
  GI50: 13.8 µM
  TGI: 44.5 µM
SN12C renal
  GI50: 2480 nM
  TGI: 7.29 µM
SNB-19 CNS
  GI50: 4050 nM
  TGI: 17 µM
SNB-75 CNS
  GI50: 2550 nM
  TGI: 6.94 µM
SR leukemia
  GI50: 1300 nM
  TGI: 4160 nM
SW-620 colon
  GI50: 2300 nM
  TGI: 5.39 µM
T-47D breast
  GI50: 2230 nM
  TGI: 13.1 µM
TK-10 renal
  GI50: 8.29 µM
  TGI: 17.9 µM
U251 CNS
  GI50: 4310 nM
  TGI: 24 µM
UACC-257 melanoma
  GI50: 1800 nM
  TGI: 3.87 µM
UACC-62 melanoma
  GI50: 3670 nM
  TGI: 14 µM
UO-31 renal
  GI50: 1590 nM
  TGI: 11.1 µM
